Laboratory results as given in patent US20250340552A1, “COMPOUNDS, COMPOSITIONS AND METHODS OF TREATING DISORDERS” (HOTSPOT THERAPEUTICS, INC., priority 2022, published 2025).
Like-named read-outs stand apart in the source and are kept apart here.

Target: T1, Cbl-B (Homo sapiens, UniProt Q13191)
T1 construct: MSD-Based Assay for Degradation of Cbl-B in THP-1 Cells; endogenous in cells; host or cells: THP-1 (title) / Jurkat (protocol text)
Test: MSD-based assay for degradation of Cbl-B in THP-1 cells
Type: cell-based
In short: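 THP-1 cells were treated with compound for 24 h at 37 °C. Cbl-B in lysates was quantified by MSD sandwich immunoassay, with anti-Cbl-B capture antibody at 1 ug/mL and SULFO-TAG anti-rabbit detection. Maximal degradation (Dmax) was binned as A >70%, B 50–70%, C 30–50%, D <30%.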

[1] = Cbl-B degradation, Jurkat cells seeded (heading: THP-1 cells), 24 hours incubation, MSD readout
[2] = Cbl-B degradation, Jurkat cells seeded (heading: THP-1 cells), 24 hours incubation, MSD readout, read-out: Dmax

T1 sequence (Q13191 whole entry): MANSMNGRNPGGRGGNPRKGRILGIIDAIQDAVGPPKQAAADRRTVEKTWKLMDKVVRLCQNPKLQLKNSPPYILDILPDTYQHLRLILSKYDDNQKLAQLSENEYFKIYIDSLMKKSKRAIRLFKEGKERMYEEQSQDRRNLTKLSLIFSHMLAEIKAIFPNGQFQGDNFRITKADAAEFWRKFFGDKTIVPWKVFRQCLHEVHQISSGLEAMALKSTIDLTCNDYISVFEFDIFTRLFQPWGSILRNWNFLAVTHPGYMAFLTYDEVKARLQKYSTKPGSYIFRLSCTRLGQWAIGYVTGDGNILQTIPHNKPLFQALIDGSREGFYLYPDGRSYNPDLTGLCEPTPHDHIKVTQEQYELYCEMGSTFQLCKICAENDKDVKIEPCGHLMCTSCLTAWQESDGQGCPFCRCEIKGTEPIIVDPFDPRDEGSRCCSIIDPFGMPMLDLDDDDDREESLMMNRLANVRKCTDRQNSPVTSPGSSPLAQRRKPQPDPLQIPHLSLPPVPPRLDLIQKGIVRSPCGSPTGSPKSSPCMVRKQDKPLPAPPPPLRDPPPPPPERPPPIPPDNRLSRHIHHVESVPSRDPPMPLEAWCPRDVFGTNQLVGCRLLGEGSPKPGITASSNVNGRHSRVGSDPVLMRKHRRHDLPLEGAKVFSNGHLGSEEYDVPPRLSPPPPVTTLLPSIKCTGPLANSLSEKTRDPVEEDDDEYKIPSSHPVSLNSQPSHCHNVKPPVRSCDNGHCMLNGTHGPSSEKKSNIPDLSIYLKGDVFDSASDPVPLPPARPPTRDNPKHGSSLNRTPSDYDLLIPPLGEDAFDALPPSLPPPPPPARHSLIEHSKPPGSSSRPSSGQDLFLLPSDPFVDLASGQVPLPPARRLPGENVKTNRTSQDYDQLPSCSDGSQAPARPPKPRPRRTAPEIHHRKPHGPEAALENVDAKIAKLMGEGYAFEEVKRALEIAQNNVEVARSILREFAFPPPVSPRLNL

Compound | DC50 [1] | Dmax [2] | Dmax (THP-1)
Cn1cnnc1[C@@H](c1cccc(-n2cc3c(C(F)(F)F)cc(CN4CCC(C5CCN(C(=O)c6ccc(N7CCN(c8ccc9c(c8)CN([C@H]8CCC(=O)NC8=O)C9=O)CC7)cc6)CC5)CC4)cn3c2=O)c1)C1CCC1 (single isomer, unassigned) [Compound 162] | < 30 nM | > 70% | –
Cn1cnnc1[C@@H](c1cccc(-n2cc3c(C(F)(F)F)cc(CN4CCC[C@@H](OC5CCN(C(=O)c6ccc(N7CCN(c8ccc9c(c8)CN([C@@H]8CCC(=O)NC8=O)C9=O)CC7)cc6)CC5)C4)cn3c2=O)c1)C1CCC1 (single isomer, unassigned) [Compound 171] | < 30 nM | 50 to 70% | –
Cn1cnnc1[C@@H](c1cccc(-n2cc3c(C(F)(F)F)cc(CN4CCC[C@@H](OC5CCN(C(=O)c6ccc(N7CCN(c8ccc9c(c8)CN([C@H]8CCC(=O)NC8=O)C9=O)CC7)cc6)CC5)C4)cn3c2=O)c1)C1CCC1 (single isomer, unassigned) [Compound 172] | < 30 nM | > 70% | –
Cn1cnnc1[C@@H](c1cccc(-n2cc3c(C(F)(F)F)cc(CN4CCC(OCCOCc5ccc(CC6CCN(c7ccc8c(c7)CN([C@@H]7CCC(=O)NC7=O)C8=O)CC6)cc5)CC4)cn3c2=O)c1)C1CCC1 (single isomer, unassigned) [Compound 173] | 1000 to 10000 nM | – | 30 to 50%
Cn1cnnc1[C@@H](c1cccc(-n2cc3c(C(F)(F)F)cc(CN4CCC(OCCOCc5ccc(CC6CCN(c7ccc8c(c7)CN([C@H]7CCC(=O)NC7=O)C8=O)CC6)cc5)CC4)cn3c2=O)c1)C1CCC1 (single isomer, unassigned) [Compound 174] | < 30 nM | > 70% | –
Cn1cnnc1[C@@H](c1cccc(-n2cc3c(C(F)(F)F)cc(CN4CCC(CC(=O)N5CCC(C6CCN(c7ccc8c(c7)CN([C@@H]7CCC(=O)NC7=O)C8=O)CC6)CC5)CC4)cn3c2=O)c1)C1CCC1 (single isomer, unassigned) [Compound 177] | 300 to 1000 nM | 30 to 50% | –
Cn1cnnc1[C@@H](c1cccc(-n2cc3c(C(F)(F)F)cc(CN4CCC(CC(=O)N5CCC(C6CCN(c7ccc8c(c7)CN([C@H]7CCC(=O)NC7=O)C8=O)CC6)CC5)CC4)cn3c2=O)c1)C1CCC1 (single isomer, unassigned) [Compound 178] | < 30 nM | > 70% | –
CN(CCC1CCN(Cc2cc(C(F)(F)F)c3cn(-c4cccc([C@H](c5nncn5C)C5CCC5)c4)c(=O)n3c2)CC1)C(=O)c1ccc(N2CCN(c3ccc4c(c3)CN([C@@H]3CCC(=O)NC3=O)C4=O)CC2)cc1 (single isomer, unassigned) [Compound 185] | 30 to 300 nM | 50 to 70% | –
CN(CCC1CCN(Cc2cc(C(F)(F)F)c3cn(-c4cccc([C@H](c5nncn5C)C5CCC5)c4)c(=O)n3c2)CC1)C(=O)c1ccc(N2CCN(c3ccc4c(c3)CN([C@H]3CCC(=O)NC3=O)C4=O)CC2)cc1 (single isomer, unassigned) [Compound 186] | < 30 nM | > 70% | –
Cn1cnnc1[C@@H](c1cccc(-n2cc3c(C(F)(F)F)cc(CN4CCC[C@H](OCc5ccc(CC6CCN(c7ccc8c(c7)CN([C@@H]7CCC(=O)NC7=O)C8=O)CC6)cc5)C4)cn3c2=O)c1)C1CCC1 (single isomer, unassigned) [Compound 187] | > 10000 nM | – | –
Cn1cnnc1[C@@H](c1cccc(-n2cc3c(C(F)(F)F)cc(CN4CCC[C@H](OCc5ccc(CC6CCN(c7ccc8c(c7)CN([C@H]7CCC(=O)NC7=O)C8=O)CC6)cc5)C4)cn3c2=O)c1)C1CCC1 (single isomer, unassigned) [Compound 188] | 300 to 1000 nM | – | –
Cn1cnnc1[C@@H](c1cccc(N2Cc3c(cc(CN4CCC[C@H](OCc5ccc(CC6CCN(c7ccc8c(c7)CN([C@@H]7CCC(=O)NC7=O)C8=O)CC6)cc5)C4)cc3C(F)(F)F)C2=O)c1)C1CCC1 (single isomer, unassigned) [Compound 189] | > 10000 nM | < 30% | –
Cn1cnnc1[C@@H](c1cccc(-n2cc3c(C(F)(F)F)cc(CN4CCC[C@@H](OCc5ccc(CC6CCN(c7ccc8c(c7)CN([C@H]7CCC(=O)NC7=O)C8=O)CC6)cc5)C4)cn3c2=O)c1)C1CCC1 (single isomer, unassigned) [Compound 192] | 1000 to 10000 nM | – | –
Cn1cnnc1[C@@H](c1cccc(N2Cc3c(cc(CN4CCC[C@@H](OCc5ccc(CC6CCN(c7ccc8c(c7)CN([C@@H]7CCC(=O)NC7=O)C8=O)CC6)cc5)C4)cc3C(F)(F)F)C2=O)c1)C1CCC1 (single isomer, unassigned) [Compound 193] | > 10000 nM | < 30% | –
Cn1cnnc1[C@@H](c1cccc(N2Cc3c(cc(CN4CCC[C@@H](OCc5ccc(CC6CCN(c7ccc8c(c7)CN([C@H]7CCC(=O)NC7=O)C8=O)CC6)cc5)C4)cc3C(F)(F)F)C2=O)c1)C1CCC1 (single isomer, unassigned) [Compound 194] | 30 to 300 nM | 30 to 50% | –
Cn1cnnc1[C@@H](c1cccc(-n2cc3c(C(F)(F)F)cc(CN4CCC[C@H](OC5CCN(C(=O)c6ccc(N7CCN(c8ccc9c(c8)CN([C@@H]8CCC(=O)NC8=O)C9=O)CC7)cc6)CC5)C4)cn3c2=O)c1)C1CCC1 (single isomer, unassigned) [Compound 195] | 30 to 300 nM | 50 to 70% | –
Cn1cnnc1[C@@H](c1cccc(-n2cc3c(C(F)(F)F)cc(CN4CCC[C@H](OC5CCN(C(=O)c6ccc(N7CCN(c8ccc9c(c8)CN([C@H]8CCC(=O)NC8=O)C9=O)CC7)cc6)CC5)C4)cn3c2=O)c1)C1CCC1 (single isomer, unassigned) [Compound 196] | < 30 nM | > 70% | –
CN(CCN(C)C(=O)c1cc(C(F)(F)F)c2cn(-c3cccc([C@H](c4nncn4C)C4CCC4)c3)c(=O)n2c1)C(=O)c1ccc(C2CCN(c3ccc4c(c3)CN([C@@H]3CCC(=O)NC3=O)C4=O)CC2)cc1 (single isomer, unassigned) [Compound 197] | > 10000 nM | < 30% | –
CN(CCN(C)C(=O)c1cc(C(F)(F)F)c2cn(-c3cccc([C@H](c4nncn4C)C4CCC4)c3)c(=O)n2c1)C(=O)c1ccc(C2CCN(c3ccc4c(c3)CN([C@H]3CCC(=O)NC3=O)C4=O)CC2)cc1 (single isomer, unassigned) [Compound 198] | > 10000 nM | < 30% | –

The next lines start with results.

DC50 [1] | Dmax [2] | Compound | Dmax (THP-1)
30 to 300 nM | 30 to 50% | CN(CC1CCN(Cc2cc(C(F)(F)F)c3cn(-c4cccc([C@H](c5nncn5C)C5CCC5)c4)c(=O)n3c2)CC1)C(=O)c1ccc(C2CCN(c3ccc4c(c3)CN([C@@H]3CCC(=O)NC3=O)C4=O)CC2)cc1 (single isomer, unassigned) [Compound 199] | –
< 30 nM | > 70% | CN(CC1CCN(Cc2cc(C(F)(F)F)c3cn(-c4cccc([C@H](c5nncn5C)C5CCC5)c4)c(=O)n3c2)CC1)C(=O)c1ccc(C2CCN(c3ccc4c(c3)CN([C@H]3CCC(=O)NC3=O)C4=O)CC2)cc1 (single isomer, unassigned) [Compound 200] | –
30 to 300 nM | 30 to 50% | Cn1cnnc1[C@@H](c1cccc(-n2cc3c(C(F)(F)F)cc(CN4CCN(C(=O)Cc5ccc(C6CCN(c7ccc8c(c7)CN([C@@H]7CCC(=O)NC7=O)C8=O)CC6)cc5)CC4)cn3c2=O)c1)C1CCC1 (single isomer, unassigned) [Compound 201] | –
< 30 nM | > 70% | Cn1cnnc1[C@@H](c1cccc(-n2cc3c(C(F)(F)F)cc(CN4CCN(C(=O)Cc5ccc(C6CCN(c7ccc8c(c7)CN([C@H]7CCC(=O)NC7=O)C8=O)CC6)cc5)CC4)cn3c2=O)c1)C1CCC1 (single isomer, unassigned) [Compound 202] | –
30 to 300 nM | 30 to 50% | Cn1cnnc1CC1(c2cccc(-n3cc4c(C(F)(F)F)cc(CN5CCC(OCc6ccc(C7CCN(c8ccc9c(c8)CN([C@@H]8CCC(=O)NC8=O)C9=O)CC7)cc6)CC5)cn4c3=O)c2)COC1 (single isomer, unassigned) [Compound 205] | –
30 to 300 nM | 50 to 70% | Cn1cnnc1CC1(c2cccc(-n3cc4c(C(F)(F)F)cc(CN5CCC(OCc6ccc(C7CCN(c8ccc9c(c8)CN([C@H]8CCC(=O)NC8=O)C9=O)CC7)cc6)CC5)cn4c3=O)c2)COC1 (single isomer, unassigned) [Compound 206] | –
> 10000 nM | < 30% | Cn1cnnc1[C@@H](c1cccc(-n2cc3c(C(F)(F)F)cc(CN4CCC(OCc5cccc(CN6CCN(c7ccc8c(c7)CN([C@@H]7CCC(=O)NC7=O)C8=O)CC6)c5)CC4)cn3c2=O)c1)C1CCC1 (single isomer, unassigned) [Compound 207] | –
> 10000 nM | < 30% | Cn1cnnc1[C@@H](c1cccc(-n2cc3c(C(F)(F)F)cc(CN4CCC(OCc5cccc(CN6CCN(c7ccc8c(c7)CN([C@H]7CCC(=O)NC7=O)C8=O)CC6)c5)CC4)cn3c2=O)c1)C1CCC1 (single isomer, unassigned) [Compound 208] | –
1000 to 10000 nM | < 30% | Cn1cnnc1[C@@H](c1cccc(-n2cc3c(C(F)(F)F)cc(CN4CCN(c5ccc(C(=O)N6CCC(C7CCN(c8ccc9c(c8)CN([C@@H]8CCC(=O)NC8=O)C9=O)CC7)CC6)cc5)CC4)cn3c2=O)c1)C1CCC1 (single isomer, unassigned) [Compound 209] | –
< 30 nM | > 70% | Cn1cnnc1[C@@H](c1cccc(-n2cc3c(C(F)(F)F)cc(CN4CCN(c5ccc(C(=O)N6CCC(C7CCN(c8ccc9c(c8)CN([C@H]8CCC(=O)NC8=O)C9=O)CC7)CC6)cc5)CC4)cn3c2=O)c1)C1CCC1 (single isomer, unassigned) [Compound 210] | –
> 10000 nM | < 30% | CN(CCN(C)C(=O)c1ccc(C2CCN(c3ccc4c(c3)CN([C@@H]3CCC(=O)NC3=O)C4=O)CC2)cc1)Cc1cc(C(F)(F)F)c2cn(-c3cccc([C@H](c4nncn4C)C4CCC4)c3)c(=O)n2c1 (single isomer, unassigned) [Compound 211] | –
